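Grown in 96-well plates, cells were treated for 48 hours with each compound at five concentrations. Insufficient inhibition: endpoint recorded as highest concentration tested. GI50 marks 50% less growth.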 Calls of active or inactive are those of the source. Cut-off read from the data, not from the text of the source: active = GI50 up to about 1.1 µM and inactive = higher.
What was measured:
Test in all cases: NCI tumour cell line growth inhibition, 48 h
SK-MEL-5 = tested on: SK-MEL-5
HT-29 = tested on: HT-29
UACC-62 = tested on: UACC-62
PC-3 = tested on: PC-3
A549 = tested on: A549
OVCAR-5 = tested on: OVCAR-5
NCI/ADR-RES = tested on: NCI/ADR-RES
OVCAR-8 = tested on: OVCAR-8
NCI-H522 = tested on: NCI-H522
MCF7 = tested on: MCF7
SF-295 = tested on: SF-295
COLO 205 = tested on: COLO 205
HCC 2998 = tested on: HCC 2998
MDA-MB-435 = tested on: MDA-MB-435
DU-145 = tested on: DU-145
RXF 393 = tested on: RXF 393
Malme-3M = tested on: Malme-3M
NCI-H23 = tested on: NCI-H23
SF-539 = tested on: SF-539
IGROV-1 = tested on: IGROV-1

Compound | GI50 (SK-MEL-5) | GI50 (HT-29) | GI50 (UACC-62) | GI50 (PC-3) | GI50 (A549) | GI50 (OVCAR-5) | GI50 (NCI/ADR-RES) | GI50 (OVCAR-8) | GI50 (NCI-H522) | GI50 (MCF7) | GI50 (SF-295) | GI50 (COLO 205) | GI50 (HCC 2998) | GI50 (MDA-MB-435) | GI50 (DU-145) | GI50 (RXF 393) | GI50 (Malme-3M) | GI50 (NCI-H23) | GI50 (SF-539) | GI50 (IGROV-1)
CCOC(=O)c1c(N2CCCC2)[nH]c(=O)c(C(c2cccs2)c2c(O)c(C(=O)OCC)c(N3CCCC3)[nH]c2=O)c1O | > 100 µM (inactive) | > 100 µM (inactive) | > 100 µM (inactive) | > 100 µM (inactive) | > 100 µM (inactive) | > 100 µM (inactive) | > 100 µM (inactive) | > 100 µM (inactive) | > 100 µM (inactive) | > 100 µM (inactive) | > 100 µM (inactive) | > 100 µM (inactive) | > 100 µM (inactive) | > 100 µM (inactive) | > 100 µM (inactive) | > 100 µM (inactive) | > 100 µM (inactive) | > 100 µM (inactive) | > 100 µM (inactive) | 
N#Cc1ccsc1Nc1ccccc1[N+](=O)[O-] |  |  | > 100 µM (inactive) | > 100 µM (inactive) | > 100 µM (inactive) | > 100 µM (inactive) | > 100 µM (inactive) | > 100 µM (inactive) | 63.7 µM (inactive) | > 100 µM (inactive) | 64.1 µM (inactive) | > 100 µM (inactive) | > 100 µM (inactive) | > 100 µM (inactive) | > 100 µM (inactive) | 86.9 µM (inactive) | > 100 µM (inactive) | > 100 µM (inactive) | > 100 µM (inactive) | > 100 µM (inactive)
O=C(Nc1ccc(F)cc1)c1cc2c(cc1Cl)Sc1nccn1S2(=O)=O | 14.9 µM (inactive) | > 100 µM (inactive) |  | 90.6 µM (inactive) | > 100 µM (inactive) | > 100 µM (inactive) | > 100 µM (inactive) | 85.9 µM (inactive) | 76.9 µM (inactive) | 77.8 µM (inactive) | 28.9 µM (inactive) | > 100 µM (inactive) | > 100 µM (inactive) | 59.4 µM (inactive) | > 100 µM (inactive) | 31.7 µM (inactive) | > 100 µM (inactive) |  | 37 µM (inactive) | > 100 µM (inactive)
O=C1CCCSC(=O)N1Cc1ccccc1 | > 100 µM (inactive) | > 100 µM (inactive) | > 100 µM (inactive) | > 100 µM (inactive) | > 100 µM (inactive) | > 100 µM (inactive) | > 100 µM (inactive) | > 100 µM (inactive) | > 100 µM (inactive) | > 100 µM (inactive) | > 100 µM (inactive) | > 100 µM (inactive) | > 100 µM (inactive) | > 100 µM (inactive) | > 100 µM (inactive) | > 100 µM (inactive) | > 100 µM (inactive) | > 100 µM (inactive) | > 100 µM (inactive) | > 100 µM (inactive)
O=C1c2cc3c(cc2CC12Cc1cc4c(cc1C2)CCC4)CCC3 | > 100 µM (inactive) | 93.8 µM (inactive) |  | > 100 µM (inactive) | > 100 µM (inactive) | > 100 µM (inactive) | > 100 µM (inactive) | > 100 µM (inactive) | > 100 µM (inactive) | > 100 µM (inactive) | > 100 µM (inactive) | > 100 µM (inactive) | > 100 µM (inactive) | > 100 µM (inactive) | > 100 µM (inactive) | > 100 µM (inactive) | > 100 µM (inactive) | > 100 µM (inactive) | > 100 µM (inactive) | > 100 µM (inactive)
C=CCSc1nnc2cc(CN3CCCC3)c(-c3ccc(Cl)cc3)nn12 | 15.5 µM (inactive) | 15 µM (inactive) | 14.4 µM (inactive) | 17.9 µM (inactive) | 28.1 µM (inactive) | 18.3 µM (inactive) | 23.3 µM (inactive) | 23.3 µM (inactive) | 18.9 µM (inactive) | 16.1 µM (inactive) | 22.2 µM (inactive) | 17.6 µM (inactive) |  | 20 µM (inactive) | 20.3 µM (inactive) | 15.1 µM (inactive) | 22.6 µM (inactive) | 23.7 µM (inactive) | 18.6 µM (inactive) | 20.7 µM (inactive)
Cc1cc2c(cc1C(=O)CCC(=O)O)CC1(C2)Cc2cc(C)c(C(=O)CCC(=O)O)cc2C1 | > 100 µM (inactive) | > 100 µM (inactive) |  | > 100 µM (inactive) | > 100 µM (inactive) | > 100 µM (inactive) | > 100 µM (inactive) | > 100 µM (inactive) | > 100 µM (inactive) | > 100 µM (inactive) | > 100 µM (inactive) | > 100 µM (inactive) | > 100 µM (inactive) | > 100 µM (inactive) | > 100 µM (inactive) | > 100 µM (inactive) | > 100 µM (inactive) | > 100 µM (inactive) | > 100 µM (inactive) | > 100 µM (inactive)
COc1cc(OC)c(OC)cc1/C=C\c1ccnc2ccccc12 | 0.414 µM (active) | 0.522 µM (active) | 0.541 µM (active) | 0.532 µM (active) | 0.849 µM (active) | 7.23 µM (inactive) | 0.374 µM (active) | 1.25 µM (inactive) | 0.333 µM (active) | 0.372 µM (active) | 0.48 µM (active) | 0.463 µM (active) | 1.02 µM (active) | 0.156 µM (active) | 1.01 µM (active) | 0.466 µM (active) | 0.7 µM (active) | 0.832 µM (active) | 0.394 µM (active) | 0.897 µM (active)
CSc1nc(NCc2ccccc2)c2cnn(COCCO)c2n1 | 41.5 µM (inactive) | 37.8 µM (inactive) | 43.9 µM (inactive) | 58.1 µM (inactive) | 43.9 µM (inactive) | > 100 µM (inactive) | 53 µM (inactive) | 42.7 µM (inactive) | 28.6 µM (inactive) | 45.3 µM (inactive) | 35.5 µM (inactive) | 29.9 µM (inactive) |  | 27.4 µM (inactive) | 64.3 µM (inactive) | 29 µM (inactive) | 42.9 µM (inactive) | 24.5 µM (inactive) | > 100 µM (inactive) | 40.7 µM (inactive)
CN(NC(=O)/C(=C/c1ccc(Cl)cc1)NC(=O)c1ccccc1)c1cn[nH]c(=O)c1Cl | 73.5 µM (inactive) | > 100 µM (inactive) | 97.1 µM (inactive) | > 100 µM (inactive) | > 100 µM (inactive) | > 100 µM (inactive) | 34 µM (inactive) | 46.9 µM (inactive) | 17.5 µM (inactive) | > 100 µM (inactive) | 46.6 µM (inactive) | > 100 µM (inactive) |  | > 100 µM (inactive) | > 100 µM (inactive) | > 100 µM (inactive) | 54.5 µM (inactive) | > 100 µM (inactive) | > 100 µM (inactive) | 41.4 µM (inactive)
O=C(CCN1CCN2c3ccccc3CCC2C1)c1ccc(F)cc1 (stereo not drawn) | 22.5 µM (inactive) | 18.8 µM (inactive) | 31 µM (inactive) | 42.8 µM (inactive) | > 100 µM (inactive) | 23.1 µM (inactive) | 36 µM (inactive) | 41.5 µM (inactive) | 15.4 µM (inactive) | 19.8 µM (inactive) | > 100 µM (inactive) | 22 µM (inactive) |  | 24 µM (inactive) | 30.1 µM (inactive) | 20.6 µM (inactive) | 25.1 µM (inactive) | 36.1 µM (inactive) | 20.8 µM (inactive) | 22.4 µM (inactive)
Cc1nn(C(=O)c2ccccc2O)c2c1C(c1ccccc1O)SC(=N)N2 (stereo not drawn) | 2.46 µM (inactive) | > 10 µM (inactive) | 3.08 µM (inactive) | 7.71 µM (inactive) | 8.04 µM (inactive) | 6.32 µM (inactive) | 4.09 µM (inactive) | 2.82 µM (inactive) | 3.47 µM (inactive) | 2.75 µM (inactive) | 7.53 µM (inactive) | > 10 µM (inactive) | > 10 µM (inactive) | 3.08 µM (inactive) | 8.85 µM (inactive) | > 10 µM (inactive) | > 10 µM (inactive) | 2.94 µM (inactive) | 0.421 µM (active) | 1.01 µM (active)
COc1ccc(/C=C2/SC(c3c(O)ccc4ccccc34)N(NC(=O)CCCCCCCCC(=O)NN3C(=O)/C(=C\c4ccc(OC)c(OC)c4)SC3c3c(O)ccc4ccccc34)C2=O)cc1OC (stereo not drawn) | 0.318 µM (active) | 3.65 µM (inactive) | 1.56 µM (inactive) | 1.48 µM (inactive) | 1.44 µM (inactive) | 21.5 µM (inactive) | 1.77 µM (inactive) | 0.553 µM (active) | 0.472 µM (active) | 1.71 µM (inactive) | 1.39 µM (inactive) | 3.15 µM (inactive) | 5.25 µM (inactive) | 11.3 µM (inactive) | 1.61 µM (inactive) | 3.56 µM (inactive) | 2 µM (inactive) | 2.22 µM (inactive) | 1.01 µM (active) | 0.481 µM (active)
COc1cc(-c2cc(-c3ccccc3)nc(-c3c(OC)ccc4c(C)cc(=O)oc34)c2)cc(OC)c1OC | > 100 µM (inactive) | > 100 µM (inactive) | > 100 µM (inactive) | > 100 µM (inactive) | > 100 µM (inactive) |  | > 100 µM (inactive) | > 100 µM (inactive) | > 100 µM (inactive) | 74.1 µM (inactive) | > 100 µM (inactive) | > 100 µM (inactive) | > 100 µM (inactive) | > 100 µM (inactive) | > 100 µM (inactive) | > 100 µM (inactive) | > 100 µM (inactive) | > 100 µM (inactive) | > 100 µM (inactive) | > 100 µM (inactive)
